Experimental data from EP4653435A1, “PRMT5-MTA INHIBITOR” (Suzhou Puhe Biopharma Co., Ltd., priority 2023, dated 2024).
Where two headings read alike, the source gives them in different places.

Assays:
HCT116-MTAPdel = test: 2D antiproliferative assay (CTG cell viability), MTAP-deficient cells; format: cell-based; settings: for IC50: Homo sapiens; for HCT116WT IMTAPdel selectivity: ratio IC50 wild type / MTAPdel, antiproliferation
Procedure: (§1) HCT116 wild-type and MTAP-deficient cells were cultured in McCoy's 5A medium containing 10% FBS and 1% penicillin-streptomycin, and cultured in a 37°C, 5% CO2 constant temperature incubator. 40 µL of cell suspension was introduced into each well of a 384-well microplate. 40 nL of different concentrations of test compounds were added to each well using an Echo, before culturing in a 37°C, 5% CO2 constant temperature incubator for 7-10 days. 40 µL of CTG solution (Promega, Cat No. G7573) was added to each well and incubated in a 37°C, 5% CO2 constant temperature incubator for 30 minutes in the dark.

HCT116-MTAPwt = test: 2D antiproliferative assay (CTG cell viability), wild-type cells; format: cell-based; settings: Homo sapiens, HCT-116, 7-10 days
Procedure: as §1

[1] = Liver microsomal stability assay, human
Procedure: The compounds to be tested were co-incubated with liver microsomes of different species with or without the addition of NADPH. The final concentration of the test compounds in the test system was 1 µM, the final concentration of NADPH was 1 mM, and the final concentration of liver microsomes was 0.5 mg/mL.

[2] = HCT-116, HCT116 MTAP-deficient cells, 7-10 days, CTG, read-out: HCT116-MTAPdel/IC50/nM

| SMILES | IC50 (HCT116-MTAPdel; [2]) [nM] | IC50 (HCT116-MTAPwt) [nM] | CLint scaled at 1 µM ([1]; liver microsomes) [mL/min/kg] | CLint scaled at 1 h, 1 µM ([1]; microsomes) [mL/min/kg] | HCT116WT IMTAPdel selectivity (HCT116-MTAPdel) | CLint scaled at 1 h, 1 µM ([1]; liver microsomes) [mL/min/kg] | IC50 (HCT116-MTAPdel; HCT-116, read-out: HCT116-MTAPdel/IC50/nM) [nM] |
| --- | --- | --- | --- | --- | --- | --- | --- |
| C[C@H]1COC[C@@H](c2ccc(C(F)(F)F)cn2)N1C(=O)C(=O)Nc1cnc(N)c2c1cnn2C (racemic) [Compound P11] | 15 | 855 |  | 16.5 | 57 |  |  |
| [2H]C([2H])([2H])n1ncc2c(NC(=O)C(=O)N(C)[C@@H]3COCc4nc(C(F)(F)F)ccc43)cnc(N)c21 [Compound P26] | 12 | 4550 |  |  | 380 |  |  |
| CN(C(=O)C(=O)Nc1cnc(N)c2c1cnn2C)C1COCc2nc(C(F)(F)F)ccc21 (stereo not shown) [Compound P9] | 24 | 1420 | 5 |  | 59 |  |  |
| C[C@H]1COC[C@@H](c2ccc(C(F)(F)F)cn2)N1C(=O)C(=O)Nc1cnc(N)c2c1cnn2C [Compound P11a] | 1910 | > 10000 |  |  | >5 |  |  |
| C[C@H]1CC[C@H](c2ccc3sc(CN(C)C)nc3c2)N(C(=O)C(=O)Nc2cnc(N)c3c2cnn3C)C1 (racemic) [Compound P14] | 11 | 295 |  |  | 27 |  |  |
| C[C@H]1COC[C@@H](c2ccc(-c3cncc(Cl)c3)cn2)N1C(=O)C(=O)Nc1cnc(N)c2c1cnn2C [Compound P13a] | 616 | > 10000 |  |  | >16 |  |  |
| C[C@H]1CC[C@H](c2ccc3sc(C4CCOCC4)nc3c2)N(C(=O)C(=O)Nc2cnc(N)c3c2cnn3C)C1 (racemic) [Compound P18] | 14 | 900 |  |  | 64 |  |  |
| C[C@H](c1ncccn1)N(Cc1ccc(C(F)(F)F)cn1)C(=O)C(=O)Nc1cnc(N)c2c1cnn2C1CC1 [Compound P7] | 56 | 2520 |  |  | 45 |  |  |
| CSc1ccc2c(c1)OCC2N(C)C(=O)C(=O)Nc1cnc(N)c2c1cnn2C (stereo not shown) [Compound P31] | 21 | 3580 |  |  | 171 |  |  |
| CC1CCC(c2ccc3sc(C4CCN(C)CC4)nc3c2)N(C(=O)C(=O)Nc2cnc(N)c3c2cnn3C)C1 (racemic) [Compound P5] | 4 | 36 |  |  | 9 | 10.7 |  |
| CN(C(=O)C(=O)Nc1cnc(N)c2c1cnn2C)[C@H]1COc2cc(OC(F)(F)F)ccc21 [Compound P30b] | 191 | > 10000 |  |  | >52 |  |  |
| Cn1ncc2c(NC(=O)C(=O)N(CC(F)(F)F)[C@H]3COc4cc(C(F)(F)F)ccc43)cnc(N)c21 [Compound P20b] | 883 | > 10000 |  |  | 11 |  |  |
| CCn1ncc2c(NC(=O)C(=O)N(C)[C@@H]3COc4cc(C(F)(F)F)ccc43)cnc(N)c21 [Compound P24] | 2410 | > 10000 |  |  | >4 |  |  |
| C[C@H](c1ncccn1)N(Cc1ccc(C(F)(F)F)cn1)C(=O)C(=O)Nc1cnc(N)c2cnn(C)c12 [Compound P4] | 813 | > 10000 |  |  | >12 |  |  |
| CN(C(=O)C(=O)Nc1cnc(N)c2c1cnn2C)[C@@H]1COc2cc(OC(F)(F)F)ccc21 [Compound P30a] | 7 | 1550 |  |  | 221 |  |  |
| C[C@@H]1CC[C@@H](c2ccc3scnc3c2)N(C(=O)C(=O)Nc2cnc(N)c3c2cnn3C)C1 [Compound P3a] |  | > 10000 |  |  |  |  | 666 |
| C[C@@H]1COC[C@H](c2ccc(-c3cncc(Cl)c3)cn2)N1C(=O)C(=O)Nc1cnc(N)c2c1cnn2C [Compound P13b] | 2 | 506 |  |  | 253 |  |  |
| C[C@H]1COC[C@@H](c2ccc(OC(F)(F)F)cc2)N1C(=O)C(=O)Nc1cnc(N)c2c1cnn2C (racemic) [Compound P12] | 5 | 607 |  |  | 121 |  |  |
| CN(C(=O)C(=O)Nc1cnc(N)c2c1cnn2C)[C@H]1COc2cc(-c3cncc(Cl)c3)ccc21 [Compound H1b] | 300 | > 10000 |  |  | >33 |  |  |
| [2H]C([2H])([2H])N(C(=O)C(=O)Nc1cnc(N)c2c1cnn2C)[C@@H]1COCc2nc(C(F)(F)F)ccc21 [Compound P27] | 15 | 2110 |  |  | 141 |  |  |
| CN(C(=O)C(=O)Nc1cnc(N)c2c1cnn2C)[C@H]1COCc2nc(C(F)(F)F)ccc21 [Compound P9b] | 883 | > 10000 |  |  | >11 |  |  |
| [2H]C([2H])([2H])n1ncc2c(NC(=O)C(=O)N(C)[C@@H]3COc4cc(C(F)(F)F)ccc43)cnc(N)c21 [Compound P23] | 17 | 1710 |  |  | 101 |  |  |

The next lines start with results.

| IC50 (HCT116-MTAPdel; [2]) [nM] | IC50 (HCT116-MTAPwt) [nM] | CLint scaled at 1 µM ([1]; liver microsomes) [mL/min/kg] | CLint scaled at 1 h, 1 µM ([1]; microsomes) [mL/min/kg] | SMILES | HCT116WT IMTAPdel selectivity (HCT116-MTAPdel) | CLint scaled at 1 h, 1 µM ([1]; liver microsomes) [mL/min/kg] | IC50 (HCT116-MTAPdel; HCT-116, read-out: HCT116-MTAPdel/IC50/nM) [nM] |
| --- | --- | --- | --- | --- | --- | --- | --- |
| 261 | 3860 |  |  | CCN(C(=O)C(=O)Nc1cnc(N)c2c1cnn2C)[C@H]1COc2cc(C(F)(F)F)ccc21 [Compound P19b] | 15 |  |  |
| 1260 | > 10000 |  |  | CCn1ncc2c(NC(=O)C(=O)N(C)[C@@H]3COCc4nc(C(F)(F)F)ccc43)cnc(N)c21 [Compound P25] | >8 |  |  |
| 8 | 427 |  |  | C[C@@H]1COC[C@H](c2ccc(C(F)(F)F)cn2)N1C(=O)C(=O)Nc1cnc(N)c2c1cnn2C [Compound P11b] | 53 |  |  |
| 28 | 6020 | 19.2 |  | Cn1ncc2c(NC(=O)C(=O)N(CC(F)(F)F)[C@@H]3COc4cc(C(F)(F)F)ccc43)cnc(N)c21 [Compound P20a] | 215 |  |  |
| 9 | 2320 |  |  | CN(C(=O)C(=O)Nc1cnc(N)c2c1cnn2C)[C@@H]1COc2cc(-c3cncc(Cl)c3)ccc21 [Compound H1a] | 258 |  |  |
| 978 | > 10000 |  |  | Cn1ncc2c(NC(=O)C(=O)N(C3CC3)[C@H]3COc4cc(C(F)(F)F)ccc43)cnc(N)c21 [Compound P21a] | 10 |  |  |
| 11 | 891 |  |  | C[C@H]1CC[C@H](c2ccc3sc(C(F)(F)F)nc3c2)N(C(=O)C(=O)Nc2cnc(N)c3c2cnn3C)C1 (racemic) [Compound P16] | 81 |  |  |
| > 10000 | > 10000 |  |  | Cn1ncc2c(NC(=O)C(=O)NC3COc4cc(C(F)(F)F)ccc43)cnc(N)c21 (stereo not shown) [Compound A1, reference compound] |  |  |  |
| 8 | 606 |  |  | C[C@H]1CC[C@H](c2ccc3sc(-c4cccnc4)nc3c2)N(C(=O)C(=O)Nc2cnc(N)c3c2cnn3C)C1 (racemic) [Compound P17] | 76 |  |  |
| 6 | 203 |  | 9.7 | C[C@H]1CC[C@H](c2ccc3sc(CCN(C)C)nc3c2)N(C(=O)C(=O)Nc2cnc(N)c3c2cnn3C)C1 (racemic) [Compound P15] | 34 |  |  |
| 17 | 72 |  |  | CC(=O)N1CCC(Nc2cc(C(=O)NC[C@H](O)CN3CCc4ccccc4C3)ncn2)CC1 [GSK3326595, reference compound] | 4 |  |  |
| 18 | 1300 |  |  | CCn1ncc2c(NC(=O)C(=O)N(Cc3ccc(C(F)(F)F)cn3)[C@H](C)c3ncccn3)cnc(N)c21 [Compound P6] | 72 |  |  |
| 224 | > 10000 |  |  | CN(C(=O)C(=O)Nc1cnc(N)c2c1cnn2C)[C@H]1COCc2nc(-c3cncc(Cl)c3)ccc21 [Compound H2a] | >45 |  |  |
| 10 | 800 |  |  | Cc1nc2cc(C3CCC(C)CN3C(=O)C(=O)Nc3cnc(N)c4c3cnn4C)ccc2s1 (racemic) [Compound P10] | 80 |  |  |
| 4 | 1230 | 21.3 |  | CN(C(=O)C(=O)Nc1cnc(N)c2c1cnn2C)[C@@H]1COCc2nc(-c3cncc(Cl)c3)ccc21 [Compound H2b] | 308 |  |  |
| 6 | 847 |  |  | Cn1ncc2c(NC(=O)C(=O)N(C3CC3)[C@@H]3COc4cc(C(F)(F)F)ccc43)cnc(N)c21 [Compound P21b] | 141 |  |  |
| 986 | 2340 |  |  | CCN(C(=O)C(=O)Nc1cnc(N)c2c1cnn2C)[C@H]1COCc2nc(C(F)(F)F)ccc21 [Compound P28a] | 2 |  |  |
| 118 | > 10000 |  |  | CN(C(=O)C(=O)Nc1cnc(N)c2c1cnn2C)[C@H]1COc2cc(C(F)(F)F)ccc21 [Compound P2b] | 85 |  |  |
| 4 | 161 |  |  | C[C@H](c1ncccn1)N(Cc1ccc(-c2cncc(Cl)c2)cn1)C(=O)C(=O)Nc1cnc(N)c2c1cnn2C [Compound P8] | 40 |  |  |
